Results from US10016408B2, “Chemokine CXCR4 receptor modulators and uses related thereto” (EMORY UNIVERSITY, priority 2010, dated 2018).
Like-named read-outs stand apart in the source and are kept apart here.

Experiments:
[1] = tested on: HIV-1 IIIB; experiment: MAGI-CXCR4 HIV-1 IIIB antiviral assay (β-galactosidase reporter); details: for inhibition at 1 µM: MAGI, read-out: MAGI HIV IIIB % Inhibition at 1 uM, 1 uM compound; for MAGI HIV IIIB % Inhibition at 1 uM: 1 uM compound; for T.I. (TC50/IC50): therapeutic index, MAGI assay
Description: Example 2: MAGI-CXCR4 HIV-1 IIIB Assay Procedure
(§1) MAGI-CXC4 cells (obtained from the NIH AIDS Research and Reference Reagent Program) are passed into T-75 flasks prior to use in the antiviral assay. MAGI-CXCR4 cells are derived from HeLa-CD4-LTR-β-gal cells. The cells have been engineered to express high levels of CD4 and […] and contain one copy of the HIV-1 LTR promoter driving expression of the β-galactosidase gene upon HIV-1 Tat transactivation. On the day preceding the assay, the cells are plated at 1.0×10^4 per well and incubated at 37° C. overnight. Total cell and viability quantification is performed using a hemacytometer and trypan blue exclusion.
The virus used for these tests is the […](CXCR4-tropic strain HIV-1NL4-3 is also available for use). This virus was obtained from the NIH AIDS Research and Reference Reagent Program and was grown in Ghost Hi5/MAGI-CXCR4 co-cultures for the production of stock virus pools. For each assay, a pre-titered aliquot of virus is removed from the freezer (−80° C.) and allowed to thaw slowly to room temperature in a biological safety cabinet. The virus is re-suspended and diluted into tissue culture medium such that the amount of virus added to each well in a volume of […] is approximately ten TCID50/well (˜0.001 TCID50/cell).
(§2) Compounds are evaluated at one or two concentrations (e.g., for initial screening) or in dose-response at six concentrations (triplicate wells/concentration). On the day of assay setup, compound dilutions are prepared at two-times (2×) the final required concentrations. Media used for plating the cells the day before assay setup is aspirated from the plates and replaced with 50 μL of the 2× compounds, followed by the addition of 50 μL of virus, which dilutes the compounds to the final 1× concentrations. Cell control wells (cells only) and virus control wells (cells plus virus) are included on each assay plate. Identical uninfected assay plates (virus replaced with media) are prepared for parallel cytotoxicity testing. The cultures are incubated for 48 hours or 6 days (depending on compound or client requirements) after which antiviral efficacy is measured as the inhibition of β-galactosidase reporter expression and cytotoxicity is monitored by MTS staining.
A chemiluminescent endpoint is used to determine the extent of β-galactosidase expression as a measure of HIV-1 infection of the cells. Once HIV-1 has attached and entered the MAGI-CXCR4 cells, HIV-1 Tat transactivates the LTR dependent β-galactosidase enzyme to express higher than normal levels of β-galactosidase. Thus there is a direct relationship between the level of HIV-1 infection and the level of β-galactosidase detected in the cells. At 48 hours post infection, plates are aspirated and PBS is added to each well. Gal-screen reagent (Tropix, Bedford, Mass.) is then added per the manufacturer's instructions for chemiluminescent detection of β-galactosidase activity and incubated at room temperature for 90 minutes. The resulting chemiluminescence signal is then read using a Microbeta Trilux luminescence reader (PerkinElmer/Wallac).
(§3) At assay termination, the cytotoxicity assay plates are stained with the soluble tetrazolium-based dye MTS (CellTiter Reagent, Promega) to determine cell viability and quantify compound toxicity. […] At termination of the assay, 15 μL of MTS reagent is added per well. The microtiter plates are then incubated 1.5-2 hrs at 37° C.; the incubation interval was chosen based on empirically determined times for optimal dye reduction. The plates are read spectrophotometrically at 490/650 nm with a Molecular Devices Vmax plate reader. Percent inhibition of virus replication and percent cell viability at each concentration are calculated using an in-house computer program.

[2] = tested on: MAGI-CXCR4 cells; experiment: in vitro
Procedure: as §1, §2, §3

[3] = tested on: HIV IIIB virus; experiment: Peripheral blood mononuclear cell HIV IIIB assay; details: for IC50: read-out: PBMC-HIV IC50; for IC90: read-out: PBMC-HIV IC90; for T.I. (TC50/IC50): therapeutic index
Procedure: (§4) To test efficacy of selected compounds, peripheral mononuclear cell assays are performed. Cells are infected for 6 days with live HIV IIIB virus and PBM cells are run in parallel for cytotoxicity testing, with or without selected agents. Efficacy of compounds as antagonists of the sdf-1 ligand to CXCR4 receptors was determined in I^125 labeled sdf-1 displacement assays from CXCR4-expressing CEM cells are performed.

[4] = tested on: PBM cells; experiment: in vitro
Procedure: as §4

[5] = in vitro; details: human
Procedure: as §1, §2, §3

[6] = in vitro; details: human; remark: listed apart in the source
Procedure: as §4

[7] = Human immunodeficiency virus 1, IIIB, MAGI-CXCR4 cells
[8] = read-out: HIV IC90, MAGI-CXCR4 cells, further testing
[9] = PBMC infected 6 days with live HIV IIIB
[10] = Human immunodeficiency virus 1, IIIB, read-out: HIV IC90, MAGI-CXCR4 cells, further testing
[11] = read-out: HIV IC50, MAGI-CXCR4 cells, further testing
[12] = Human immunodeficiency virus 1, IIIB, PBMC, 144 h

Work on NCCCCN(CC1CCc2ccccc2N1)C1CCCc2cccnc21 (stereo not drawn) [drawing 40] yielded an inhibition at 1 µM [1, 7] of 42%.

CN(CC1Cc2ccccc2CN1)C1CCCc2cccnc21 (stereo not drawn) showed an inhibition at 1 µM [1, 7] of 30%.

In the case of NCCCCN(CC1CN(Cc2ccccc2)CCN1)C1CCCc2cccnc21 (stereo not drawn) [Compound 8], the “MAGI HIV IIIB % Inhibition at 1 uM” value ([1]; MAGI-CXCR4 cells) is reported as 95%, the IC90 [1, 8] is reported as 720 nM and the “T.I. (TC50/IC50)” value [1] is reported as over 67. It also gave a CC50 ([2]; human) of over 10000 nM.

Work on NCCCCN(C[C@@H]1CC(c2ccccc2)CN1)C1CCCc2cccnc21 (stereo partly drawn) yielded an inhibition at 1 µM [1, 7] of 20%.

With NCCCCN(C[C@@H]1CC(OCCCN)CN1C(=O)OCc1ccccc1)C1CCCc2cccnc21 (stereo partly drawn) the inhibition at 1 µM [1, 7] was 0%.

For Cc1cn([C@H]2C[C@H](N=[N+]=[N-])[C@@H](CO)O2)c(=O)[nH]c1=O [AZT], the IC50 [3, 9] was 4 nM, the IC90 [3, 9] was 70 nM and the “T.I. (TC50/IC50)” value ([3]; PBMC) was over 240. For the same compound, the CC50 [4] was over 1000 nM.

NCCCCN(CC1CN(Cc2ccccc2)CCN1)C1CCCc2cccnc21 (stereo not drawn) [Compound 9] gave an inhibition at 1 µM [1, 7] of 92%, an IC90 [1, 10] of 440 nM and an IC50 [1, 11] of 30 nM. The IC50 ([1]; read-out: MAGI HIV IIIB IC50, MAGI-CXCR4 cells) was 30 nM, the “T.I. (TC50/IC50)” value [1] was over 333 and the CC50 [5] was over 10000 nM.

With NCCCCN(CC1CCc2ccccc2N1)C1CCCc2cccnc21 (stereo not drawn) [drawing 41] the “MAGI HIV IIIB % Inhibition at 1 uM” value ([1]; MAGI-CXCR4 cells) was 31% @ 1 uM.

With CN(CC1CN(Cc2ccccc2)CCN1)C1CCCc2cccnc21 (stereo not drawn) the inhibition at 1 µM [1, 7] was 41%.

With NCCCCN(C[C@@H]1CC(OCc2ccccc2)CN1)C1CCCc2cccnc21 (stereo partly drawn) the inhibition at 1 µM [1, 7] was 0%.

Cc1ccc(-c2ccc3c(c2)C=C(C(=O)Nc2ccc(C[N+](C)(C)C4CCOCC4)cc2)CCC3)cc1 [TAK779, reference compound] gave an IC50 [1, 11] of over 10000 nM, an IC90 [1, 8] of over 10000 nM and a CC50 ([2]; read-out: TC50, MTS staining, uninfected MAGI-CXCR4 cells) of over 10000 nM.

With CN(C[C@@H]1CC(OCCCN)CN1C(=O)OCc1ccccc1)C1CCCc2cccnc21 (stereo partly drawn) the inhibition at 1 µM [1, 7] was 0%.

Maraviroc showed an IC50 [3, 9] of over 2000 nM and an IC90 [3, 9] of over 2000 nM.

With c1cc(CN2CCCNCCNCCCNCC2)ccc1CN1CCCNCCNCCCNCC1 [AMD3100, reference compound] the IC50 ([1]; Human immunodeficiency virus 1, IIIB, read-out: HIV IC50, MAGI-CXCR4 cells, further testing) was 2 nM, the IC90 [1, 10] was 7 nM and the “T.I. (TC50/IC50)” value [1] was over 5000. For the same compound, the CC50 [5] was over 10000 nM, the IC50 [3, 12] was 32 nM and the IC90 [3, 12] was 134 nM. For the same compound, the “T.I. (TC50/IC50)” value ([3]; PBMC) was over 150 and the CC50 at 6 days [6] was over 5000 nM.

With O=C1c2ccccc2C(=O)N1CCCCN(CC1Cc2ccccc2CN1)C1CCCc2cccnc21 (stereo not drawn) the inhibition at 1 µM [1, 7] was 25%.
